# Assays:
# RBAp48 mRNA in HSG cells = assay: Northern blotting of genes with enhanced expression by anti-estrogen effect; type: cell-based, human
# [1] = test system: human salivary gland cell line (HSG); assay: Apoptosis induction of cultured cells, Annexin-V-FITC flow cytometry; type: cell-based; details: Tam 10^−7 M, 48 hours after addition, compared with groups without Tam
# Protocol: (§1) Cells of each of the following cell lines were cultured through a routine method; mouse salivary gland cell lines (MSG:B6 and ERαKO); human salivary gland cell line (HSG); human breast cancer cultured-cell line (MCF-7); human acute T cell leukemia cell line (Jurkat); and human colon cancer cultured-cell lines (HT-29 and Colo201). The cultured cells were reacted with tamoxifen (Tam, final concentration: 10^−7 M), an antagonist of estrogen. […] Separately, the above cultured cells were reacted with staurosporin (an apoptosis inducer, final concentration: 10^−6 M), and the resultant cells were used as a positive control group. Forty-eight hours after the addition of Tam, apoptosis of the cells was determined by means of a flow cytometer, by use of Annexin-V-FITC.
# [2] = test system: mouse salivary gland cell line MSG (B6); assay: as above; type: cell-based; details: Tam 10^−7 M, 48 hours after addition, compared with groups without Tam
# Protocol: as §1
# [3] = test system: ERαKO-mouse-derived MSG cells; assay: as above; type: cell-based; details: Tam 10^−7 M, 48 hours
# Protocol: as §1
# [4] = test system: human breast cancer cultured-cell line (MCF-7); details: MCF-7 cells, previously known; cited from earlier work
# [5] = test system: RHO cells (RBAp48-stable cell line from HSG cells); assay: Effect of siRNA on RBAp48-induced apoptosis, Annexin-V-FITC flow cytometry; type: cell-based, human; details: 50 nM siRNA by lipofection, IPTG 24 h after transfer, culture 8 h
# Excerpt: (§2) A stable cell line in which RBAp48 expression is stably regulated by addition of IPTG to the culture system is established by means of LacSwitch II Inducible Mammalian Expression System (STRATEGENE) through use of HSG cells (RHO cell). […] Separately, the RHO cells were investigated in terms of cell cycle related molecules (i.e., RBs, phosphorylated RB, CyclinD3, and p19ARF) in the cell lysates six hours after addition of IPTG, through western blotting by use of the corresponding antibodies (BD Transduction Laboratory). […] In addition, a nuclear extract of IPTG-added RHO cells was subjected to gel shift assay.
# siRNA of RBAp48 was prepared (sense; CGAGGAAUACAAAAUAUGGTT (SEQ ID NO: 1), antisense; CCAUAUUCUGUAUUCCUCGTT (SEQ ID NO: 2)). […] The percent apoptotic cells of the cultured cells was determined by means of a flow cytometer, by use of Annexin-V-FITC.
# [6] = test system: RHO cells (RBAp48-stable cell line from HSG cells); assay: Apoptosis of RBAp48-stable cell line after addition of IPTG; type: cell-based, human; details: from two hours to twelve hours after addition of IPTG
# Excerpt: as §2
# [7] = test system: MSG:B6, ERαKO, HSG, MCF-7, Jurkat, HT-29 and Colo201 cells; assay: Apoptosis induction of cultured cells, positive control groups; type: cell-based; details: staurosporin 10^−6 M, all cell groups, not differing from one group to another
# Protocol: as §1
compound,measurement,setting,value
CC/C(=C(\c1ccccc1)c1ccc(OCCN(C)C)cc1)c1ccccc1 [tamoxifen],mRNA (RBAp48 gene) expression,"RBAp48 mRNA in HSG cells; tamoxifen 10^−7 M, northern blotting",enhanced expression
same,RBAp48 mRNA expression,RBAp48 mRNA in HSG cells; two hours after Tam stimulation,strong RBAp48 mRNA expression
same,percent apoptotic cells,[1],significantly high
same,percent apoptotic cells,[2],significantly high
same,apoptosis induction,[3],not to be induced
same,apoptosis induction,[4],known to be induced
"RBAp48 siRNA: siRNA of RBAp48: sense CGAGGAAUACAAAAUAUGGTT (SEQ ID NO: 1), antisense CCAUAUUCUGUAUUCCUCGTT (SEQ ID NO: 2)",apoptosis induced by addition of IPTG,[5],significantly suppressed
"CC(C)S[C@@H]1O[C@H](CO)[C@H](O)[C@H](O)[C@H]1O [IPTG, isopropyl-β-D-thiogalactoside]",percent apoptotic cells,[6],increase over time
CN[C@@H]1C[C@H]2O[C@@](C)([C@@H]1OC)n1c3ccccc3c3c4c(c5c6ccccc6n2c5c31)C(=O)NC4 [staurosporin],percent apoptotic cells,[7],high

# From patent publication US7741047B2, “Method for treating autoimmune diseases and screening method for preventive or therapeutic agent for the same” (Kowa Co., Ltd., priority 2003, dated 2010)
